In US20240342175A1, “Compositions and Methods for Treating Spinal Cord Injury and Synaptic Dysfunction” (priority 2021, published 2024):
Read-outs that look alike come from different tables or passages of the source.

Legend:
[1] = system: Fmr1 knock-out mice; experiment: Open field / hyperactivity in Fmr1 knock-out mice; format: in vivo; set-up: key: X indicates failure to ameliorate the phenotype; Y reversed the phenotype; details: repeat experiment, 15 days
Method: (§1) Fmr1 knock-out mice (n=10) were orally administered 10 mg/kg/day or 100 mg/kg/day belumosudil or vehicle (BID) for 15 days. Control groups included wild type mice and knock out mice with vehicle. Mice treated with 100 mg/kg belumosudil ameliorated the following behavioral phenotypes: open field/hyperactivity, self-grooming/stereotypy, hyponeophagia/anxiety, nesting/test of daily living, 3-chamber social novelty/sociability; resident intruder and fear conditioning.
(§2) The experiment was repeated where knock out mice received belumosudil at 20 mg/kg/day, 60 mg/kg/day and 100 mg/kg/day (BID) for 15 days. One group of knock out mice received 10 mg/kg/day belumosudil in combination with 10 mg/kg/day minocycline for 15 days. Control groups included wild type mice and knock out mice with vehicle. The results are set forth below, where X indicates failure to ameliorate the phenotype and Y reversed the phenotype: […]

[2] = system: Fmr1 knock-out mice; experiment: Self-grooming / stereotypy in Fmr1 knock-out mice; format: in vivo; set-up: key: X indicates failure to ameliorate the phenotype; Y reversed the phenotype; details: repeat experiment, 15 days
Method: as §1, §2

[3] = system: Fmr1 knock-out mice; experiment: Hyponeophagia / anxiety in Fmr1 knock-out mice; format: in vivo; set-up: key: X indicates failure to ameliorate the phenotype; Y reversed the phenotype; details: repeat experiment, 15 days
Method: as §1, §2

[4] = system: Fmr1 knock-out mice; experiment: Nesting / test of daily living in Fmr1 knock-out mice; format: in vivo; set-up: key: X indicates failure to ameliorate the phenotype; Y reversed the phenotype; details: repeat experiment, 15 days
Method: as §1, §2

[5] = system: Fmr1 knock-out mice; experiment: Novel object recognition / cognition in Fmr1 knock-out mice; format: in vivo; set-up: key: X indicates failure to ameliorate the phenotype; Y reversed the phenotype; details: repeat experiment, 15 days
Method: as §1, §2

[6] = system: Fmr1 knock-out mice; experiment: 3-chamber social novelty / sociability in Fmr1 knock-out mice; format: in vivo; set-up: key: X indicates failure to ameliorate the phenotype; Y reversed the phenotype; details: repeat experiment, 15 days
Method: as §1, §2

[7] = system: Fmr1 knock-out mice; experiment: Resident intruder in Fmr1 knock-out mice; format: in vivo; set-up: key: X indicates failure to ameliorate the phenotype; Y reversed the phenotype; details: repeat experiment, 15 days
Method: as §1, §2

[8] = system: Fmr1 knock-out mice; experiment: Fear conditioning in Fmr1 knock-out mice; format: in vivo; set-up: key: X indicates failure to ameliorate the phenotype; Y reversed the phenotype; details: repeat experiment, 15 days
Method: as §1, §2

[9] = cited from earlier work
[10] = belumosudil 100 mg/kg/day (BID)

CC(C)NC(=O)COc1cccc(-c2nc(Nc3ccc4[nH]ncc4c3)c3ccccc3n2)c1 [belumosudil]
Open Field: Hyperactivity ([1]; belumosudil 20 mg/kg/day (BID)): X | Open Field: Hyperactivity ([1]; belumosudil 60 mg/kg/day (BID)): X | Open Field: Hyperactivity [1, 10]: Y | Self-Grooming: Stereotypy ([2]; belumosudil 20 mg/kg/day (BID)): X | Self-Grooming: Stereotypy ([2]; belumosudil 60 mg/kg/day (BID)): X | Self-Grooming: Stereotypy [2, 10]: Y | Hyponeophagia: Anxiety ([3]; belumosudil 20 mg/kg/day (BID)): X | Hyponeophagia: Anxiety ([3]; belumosudil 60 mg/kg/day (BID)): X | Hyponeophagia: Anxiety [3, 10]: Y | Nesting: Test of Daily Living ([4]; belumosudil 20 mg/kg/day (BID)): Y | Nesting: Test of Daily Living ([4]; belumosudil 60 mg/kg/day (BID)): Y | Nesting: Test of Daily Living [4, 10]: Y | Novel Object Recognition: Cognition ([5]; belumosudil 20 mg/kg/day (BID)): X | Novel Object Recognition: Cognition ([5]; belumosudil 60 mg/kg/day (BID)): X | Novel Object Recognition: Cognition [5, 10]: X | 3 Chamber Social Novelty: Sociability ([6]; belumosudil 20 mg/kg/day (BID)): X | 3 Chamber Social Novelty: Sociability ([6]; belumosudil 60 mg/kg/day (BID)): X | 3 Chamber Social Novelty: Sociability [6, 10]: Y | Resident Intruder ([7]; belumosudil 20 mg/kg/day (BID)): X | Resident Intruder ([7]; belumosudil 60 mg/kg/day (BID)): Y | Resident Intruder [7, 10]: Y | Fear Conditioning ([8]; belumosudil 20 mg/kg/day (BID)): X | Fear Conditioning ([8]; belumosudil 60 mg/kg/day (BID)): Y | Fear Conditioning [8, 10]: Y | AE: cough ([9]; 200 mg once daily (QD) arm): 18 | AE: diarrhea ([9]; 200 mg once daily (QD) arm): 24% | AE: dyspnea ([9]; 200 mg once daily (QD) arm): 20% | AE: edema ([9]; 200 mg once daily (QD) arm): 24% | AE: fatigue ([9]; 200 mg once daily (QD) arm): 30% | AE: liver related investigations ([9]; 200 mg once daily (QD) arm): 20% | AE: nausea ([9]; 200 mg once daily (QD) arm): 23% | Serious AE: nausea ([9]; 200 mg once daily (QD) arm): 3% | Serious AE: pneumonia ([9]; 200 mg once daily (QD) arm): 3% | Serious AE: pyrexia ([9]; 200 mg once daily (QD) arm): 5% | Serious AE: vomiting ([9]; 200 mg once daily (QD) arm): 3% | AE: cough ([9]; 200 mg twice daily (BID) arm): 14% | AE: diarrhea ([9]; 200 mg twice daily (BID) arm): 18% | AE: dyspnea ([9]; 200 mg twice daily (BID) arm): 12% | AE: edema ([9]; 200 mg twice daily (BID) arm): 15% | AE: fatigue ([9]; 200 mg twice daily (BID) arm): 18% | AE: liver related investigations ([9]; 200 mg twice daily (BID) arm): 23% | AE: nausea ([9]; 200 mg twice daily (BID) arm): 20% | Serious AE: nausea ([9]; 200 mg twice daily (BID) arm): 2% | Serious AE: pneumonia ([9]; 200 mg twice daily (BID) arm): 3% | Serious AE: pyrexia ([9]; 200 mg twice daily (BID) arm): 0 | Serious AE: vomiting ([9]; 200 mg twice daily (BID) arm): 2% | safety and efficacy in clinical trial ([9]; 132 patients, 200 mg QD or 200 mg BID): safe and efficacious
